Laboratory results: patent publication US4721775A, “Effective peptides related to the luteinizing hormone releasing hormone from L-amino acids” (Board of Regents, The University of Texas System, priority 1985, dated 1988)
Non-standard residues stand in square brackets, D forms with d. Residues, ends and D or L forms follow the SMILES beside them. pGlu = O=C1CC[C@@H](C(=O)O)N1

Assays:
release of LH = assay: Release of LH in rats after sc injection; type: in vivo; conditions: for LH % change: LHRH = 100
Excerpt: (§1) The data on the release of LH and FSH in rats by modifications of LHRH with one structural change are in Table II.
(§2) Exclusive of the salmon-LHRH, only one of the six decapeptides with two structural changes had significant activity.

release of FSH = assay: Release of FSH in rats after sc injection; type: in vivo; conditions: for FSH % change: LHRH = 100
Excerpt: as §1, §2

[1] = 60 min. after sc injection, 300 ng
[2] = 60 min. after sc injection, 3000 ng
[3] = release 60 min. after sc injection, dosage of peptide 300 ng
[4] = release 60 min. after sc injection, dosage of peptide 3000 ng
[5] = 15 min. after sc injection, 100 ng
[6] = 15 min. after sc injection, 1000 ng
[7] = release 15 min. after sc injection, dosage of peptide 100 ng
[8] = release 15 min. after sc injection, dosage of peptide 1000 ng
[9] = sc injection, dose and time as stated in the source

SMILES	LH % change (release of LH; [1]) [%]	LH % change (release of LH; [2]) [%]	LH (release of LH; [3]) [ng/mL]	LH (release of LH; [4]) [ng/mL]	FSH % change (release of FSH; [1]) [%]	FSH % change (release of FSH; [2]) [%]	FSH (release of FSH; [3]) [ng/mL]	FSH (release of FSH; [4]) [ng/mL]	LH % change (release of LH; [5]) [%]	LH % change (release of LH; [6]) [%]	LH (release of LH; [7]) [ng/mL]	LH (release of LH; [8]) [ng/mL]	FSH (release of FSH; [7]) [ng/mL]	FSH (release of FSH; [8]) [ng/mL]	release of LH compared with LHRH (release of LH; [9])	release of FSH compared with LHRH (release of FSH; [9])	FSH % change (release of FSH; [5]) [%]	FSH % change (release of FSH; [6]) [%]
NC(=O)CNC(=O)[C@@H]1CCCN1C(=O)[C@H](Cc1ccc(O)cc1)NC(=O)[C@H](Cc1c[nH]c2ccccc12)NC(=O)CNC(=O)[C@H](Cc1ccc(O)cc1)NC(=O)[C@H](CO)NC(=O)[C@H](Cc1c[nH]c2ccccc12)NC(=O)[C@H](Cc1c[nH]cn1)NC(=O)[C@@H]1CCC(=O)N1 [[Trp^7 Tyr^8]--LHRH, p-Glu His Trp Ser Tyr Gly Trp Tyr Pro Gly-NH2] ([pGlu]HWSYGWYPG-NH2)	25	4.6	2.8	3.8	35	30	209	352										
CC(C)C[C@H](NC(=O)CNC(=O)[C@H](Cc1c[nH]cn1)NC(=O)[C@H](CO)NC(=O)[C@H](Cc1c[nH]c2ccccc12)NC(=O)[C@H](Cc1c[nH]cn1)NC(=O)[C@@H]1CCC(=O)N1)C(=O)N[C@@H](CCC(N)=O)C(=O)N1CCC[C@H]1C(=O)NCC(N)=O [[His^5 Gln^8]--LHRH, p-Glu His Trp Ser His Gly Leu Gln Pro Gly-NH2] ([pGlu]HWSHGLQPG-NH2)	30	8.3	3.3	6.8	48	39	283	456	29	47	7	27	343	416				
CC(C)C[C@H](NC(=O)CNC(=O)[C@H](Cc1ccc(O)cc1)NC(=O)[C@H](CO)NC(=O)[C@H](Cc1c[nH]c2ccccc12)NC(=O)[C@H](Cc1c[nH]cn1)NC(=O)[C@@H]1CCC(=O)N1)C(=O)N[C@@H](Cc1ccc(O)cc1)C(=O)N1CCC[C@H]1C(=O)NCC(N)=O [[Tyr^8]--LHRH, p-Glu His Trp Ser Tyr Gly Leu Tyr Pro Gly-NH2]	23	3	2.5	2.7	48	38	285	449							relatively low activities	relatively low activities		
CC(C)C[C@H](NC(=O)CNC(=O)[C@H](Cc1c[nH]cn1)NC(=O)[C@H](CO)NC(=O)[C@H](Cc1c[nH]c2ccccc12)NC(=O)[C@H](Cc1c[nH]cn1)NC(=O)[C@@H]1CCC(=O)N1)C(=O)N[C@@H](CC(C)C)C(=O)N1CCC[C@H]1C(=O)NCC(N)=O [[His^5 Leu^8]--LHRH, p-Glu His Trp Ser His Gly Leu Leu Pro Gly-NH2] ([pGlu]HWSHGLLPG-NH2)	20	2.2	2.2	1.8	44	18	261	205	0.8	5	0.2	3.3	202	276			43	57
NC(=O)CC[C@H](NC(=O)[C@H](Cc1c[nH]c2ccccc12)NC(=O)CNC(=O)[C@H](Cc1ccc(O)cc1)NC(=O)[C@H](CO)NC(=O)[C@H](Cc1c[nH]c2ccccc12)NC(=O)[C@H](Cc1c[nH]cn1)NC(=O)[C@@H]1CCC(=O)N1)C(=O)N1CCC[C@H]1C(=O)NCC(N)=O [[Trp^7 Gln^8]--LHRH, p-Glu His Trp Ser Tyr Gly Trp Gln Pro Gly-NH2] ([pGlu]HWSYGWQPG-NH2)	29	9.1	3.2	7.5	58	40	345	474	29	60	7	34	421	502				
